The target of one assay is ALK (Homo sapiens (Human), UniProt Q9UM73). The assay is described as follows: Caliper Mobility Shift kinase inhibition test. In kind it is biochemical. As to the method: (§1) The method adopted in the test was Caliper Mobility Shift Assay, which was a detection platform based on the mobility detection technology of microfluidic chip technology. Test steps: 1.25× kinase reaction buffer (62.5 mmol/L HEPES, pH 7.5; 0.001875% Brij-35; 12.5 mmol/L MgCl2; 2.5 mM DTT) and kinase reaction stop solution (100 mmol/L HEPES, pH 7.5; 0.015% Brij-35; 0.2% Coating Reagent #3) were configured. […] Collected data was tested on Caliper to yield that inhibition ratio to kinase activity=(max−conversion)/(max−min)×100. “max” was DMSO control without adding compound, and “min” was low control. When IC50 was determined, each sample was provided with 10 dilutions, each with 2 multiple holes, and repeated for 3 times.

Another assay has as its target FLT3 (Homo sapiens (Human), UniProt P36888). As to the kind of experiment: Caliper Mobility Shift kinase inhibition test. Type of assay: biochemical. The note with it: 100 nM; read-out: inhibitory rate on FLT3. As to the method: as §1
The next assay concerns the target IKK β (Homo sapiens (Human), UniProt O14920). The assay is described as follows: Caliper Mobility Shift kinase inhibition test. In kind it is biochemical. As to the method:
as §1

The next assay deals with PDGFRβ (Homo sapiens (Human), UniProt P09619). The assay is described as follows: Caliper Mobility Shift kinase inhibition test. Type of assay: biochemical. As to the method:
as §1
(§2) According to the above-mentioned method for measuring kinase inhibitory activity, the inhibitory activity of the active compounds on other multiple kinases was measured to characterize the kinase selectivity of active inhibitors.

The next assay deals with FGFR2 (Homo sapiens (Human), UniProt P21802). The assay is described as follows: Caliper Mobility Shift kinase inhibition test. Type of assay: biochemical. As to the method:
as §1, §2

The next assay addresses JAK1 (Homo sapiens (Human), UniProt P23458). The assay is described as follows: Caliper Mobility Shift kinase inhibition test. Type of assay: biochemical. As to the method:
as §1, §2

The next assay addresses ABL1 (Homo sapiens (Human), UniProt P00519). The assay is described as follows: Caliper Mobility Shift kinase inhibition test. Type of assay: biochemical. The note with it: 100 nM; read-out: inhibitory rate on ABL1. As to the method: The method adopted in the test was Caliper Mobility Shift Assay, which was a detection platform based on the mobility detection technology of microfluidic chip technology. […] Collected data was tested on Caliper to yield that inhibition ratio to kinase activity=(max−conversion)/(max−min)×100. “max” was DMSO control without adding compound, and “min” was low control. When IC50 was determined, each sample was provided with 10 dilutions, each with 2 multiple holes, and repeated for 3 times.

The test system of the next assay is MG-63 osteosarcoma cells. The assay is described as follows: MTT assay on osteosarcoma cells. In kind it is cell-based. As to conditions: Homo sapiens, 48 hours, read-out: Inhibitory activity (IC50) MG-63. As to the method: (§3) Logarithmic osteosarcoma cells were inoculated into a 96-well plate with a cell concentration of 1,500 cell/well for 6 hours by using MTT assay, and each well was filled with 200 μL of cell suspension. […] The samples were cultured in an incubator for 48 hours (37° C., 5% CO2), and 20 v L of MTT (3-(4,5-dimethylthiazole-2)-2,5-diphenyltetrazole) were added into each hole. After continuous culture for 4 hours, the culture solution was discarded by suction, and 200 v L of DMSO were added to each well. […] Calculation method of IC50 value: the IC50 values of the samples were calculated by curve fitting with GraphPad Prism software.

For a further assay, the system named is U2OS osteosarcoma cells. As to the kind of experiment: MTT assay on osteosarcoma cells. In kind it is cell-based. As to conditions: Homo sapiens, 48 hours, read-out: Inhibitory activity (IC50) U2OS. As to the method: as §3
Background: Formazan colour is commonly taken as a measure of viable cells.

Assay [1] has as its system SAOS-2 osteosarcoma cells. The assay is described as follows: MTT assay on osteosarcoma cells. In kind it is cell-based. As to conditions: Homo sapiens, 48 hours, read-out: Inhibitory activity (IC50) SAOS-2. As to the method: as §3
Assay [2] has as its system MNNG/HOS osteosarcoma cells. The assay is described as follows: MTT assay on osteosarcoma cells. Type of assay: cell-based. The note with it: 48 hours, read-out: Inhibitory activity (IC50) MNNG/HOS. As to the method:
as §3

SMILES strings stand for the structures. Where only a bound is given, the exact number is not on record here.

Sequence of PDGFRβ (P09619 33-1106): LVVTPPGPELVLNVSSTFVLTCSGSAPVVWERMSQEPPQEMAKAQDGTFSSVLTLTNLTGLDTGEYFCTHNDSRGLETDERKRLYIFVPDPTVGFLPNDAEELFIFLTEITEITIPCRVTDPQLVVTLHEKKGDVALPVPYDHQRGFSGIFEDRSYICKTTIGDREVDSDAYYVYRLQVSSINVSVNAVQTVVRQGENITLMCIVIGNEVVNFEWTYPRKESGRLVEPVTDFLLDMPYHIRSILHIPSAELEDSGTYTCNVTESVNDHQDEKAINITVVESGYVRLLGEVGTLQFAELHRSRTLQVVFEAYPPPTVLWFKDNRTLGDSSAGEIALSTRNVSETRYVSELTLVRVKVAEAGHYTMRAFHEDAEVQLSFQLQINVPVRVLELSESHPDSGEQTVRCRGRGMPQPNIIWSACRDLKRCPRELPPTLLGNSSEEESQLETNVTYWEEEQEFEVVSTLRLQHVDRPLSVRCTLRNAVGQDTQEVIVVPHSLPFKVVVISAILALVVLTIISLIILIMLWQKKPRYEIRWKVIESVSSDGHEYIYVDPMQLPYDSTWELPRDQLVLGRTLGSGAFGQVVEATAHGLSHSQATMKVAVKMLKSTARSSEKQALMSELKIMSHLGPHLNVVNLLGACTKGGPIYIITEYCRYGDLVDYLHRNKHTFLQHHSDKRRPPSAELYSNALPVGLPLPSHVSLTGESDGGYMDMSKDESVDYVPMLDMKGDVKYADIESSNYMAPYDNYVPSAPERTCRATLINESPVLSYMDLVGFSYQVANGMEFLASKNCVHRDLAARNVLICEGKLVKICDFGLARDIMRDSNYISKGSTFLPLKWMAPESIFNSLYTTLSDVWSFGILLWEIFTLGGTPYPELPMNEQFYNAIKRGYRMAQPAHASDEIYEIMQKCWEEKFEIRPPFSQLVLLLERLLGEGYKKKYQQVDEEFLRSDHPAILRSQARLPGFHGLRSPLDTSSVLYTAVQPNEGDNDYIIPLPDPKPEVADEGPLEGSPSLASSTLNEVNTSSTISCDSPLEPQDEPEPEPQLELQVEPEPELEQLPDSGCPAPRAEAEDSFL
Sequence of ALK (Q9UM73 19-1620, species assumed): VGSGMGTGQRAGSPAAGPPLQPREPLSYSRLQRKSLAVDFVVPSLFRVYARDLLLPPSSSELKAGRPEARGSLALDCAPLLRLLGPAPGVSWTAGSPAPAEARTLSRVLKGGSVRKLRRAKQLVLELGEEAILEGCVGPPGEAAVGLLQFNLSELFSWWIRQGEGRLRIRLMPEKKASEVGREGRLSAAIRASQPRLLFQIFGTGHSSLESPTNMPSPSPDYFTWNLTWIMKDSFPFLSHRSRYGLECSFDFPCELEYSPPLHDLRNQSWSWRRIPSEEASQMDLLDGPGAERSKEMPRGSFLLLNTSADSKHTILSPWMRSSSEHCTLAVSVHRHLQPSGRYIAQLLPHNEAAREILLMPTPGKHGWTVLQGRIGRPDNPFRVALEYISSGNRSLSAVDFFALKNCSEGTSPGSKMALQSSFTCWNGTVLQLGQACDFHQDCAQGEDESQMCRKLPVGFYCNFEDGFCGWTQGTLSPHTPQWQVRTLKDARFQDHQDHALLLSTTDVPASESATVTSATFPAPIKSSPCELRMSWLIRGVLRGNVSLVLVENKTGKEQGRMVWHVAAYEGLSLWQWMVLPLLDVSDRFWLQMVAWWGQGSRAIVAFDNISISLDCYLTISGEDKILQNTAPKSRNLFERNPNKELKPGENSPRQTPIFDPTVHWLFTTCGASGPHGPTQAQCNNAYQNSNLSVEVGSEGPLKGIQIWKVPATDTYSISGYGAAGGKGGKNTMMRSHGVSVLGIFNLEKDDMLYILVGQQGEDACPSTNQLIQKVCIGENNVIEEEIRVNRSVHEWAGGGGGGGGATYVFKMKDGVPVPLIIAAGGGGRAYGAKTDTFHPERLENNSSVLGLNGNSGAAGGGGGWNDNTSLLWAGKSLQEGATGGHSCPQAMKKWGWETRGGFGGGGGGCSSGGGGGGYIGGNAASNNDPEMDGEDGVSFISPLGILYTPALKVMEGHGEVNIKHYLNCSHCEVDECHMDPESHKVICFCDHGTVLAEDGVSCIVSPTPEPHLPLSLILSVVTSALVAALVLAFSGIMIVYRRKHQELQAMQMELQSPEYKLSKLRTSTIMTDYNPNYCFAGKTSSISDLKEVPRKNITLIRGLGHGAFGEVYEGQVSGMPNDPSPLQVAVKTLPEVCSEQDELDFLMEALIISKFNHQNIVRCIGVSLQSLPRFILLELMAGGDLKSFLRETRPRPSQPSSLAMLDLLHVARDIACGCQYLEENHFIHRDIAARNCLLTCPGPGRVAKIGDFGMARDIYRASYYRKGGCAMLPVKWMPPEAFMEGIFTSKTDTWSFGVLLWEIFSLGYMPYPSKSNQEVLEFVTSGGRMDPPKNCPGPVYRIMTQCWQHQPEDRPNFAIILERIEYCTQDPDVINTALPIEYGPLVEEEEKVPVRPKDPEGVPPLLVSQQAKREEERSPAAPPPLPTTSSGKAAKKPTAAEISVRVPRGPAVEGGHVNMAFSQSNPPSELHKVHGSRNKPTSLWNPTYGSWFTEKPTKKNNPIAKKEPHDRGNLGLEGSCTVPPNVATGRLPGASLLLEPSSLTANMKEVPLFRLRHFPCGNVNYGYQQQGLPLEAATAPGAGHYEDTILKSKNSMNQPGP
Sequence of ABL1 (P00519 whole entry): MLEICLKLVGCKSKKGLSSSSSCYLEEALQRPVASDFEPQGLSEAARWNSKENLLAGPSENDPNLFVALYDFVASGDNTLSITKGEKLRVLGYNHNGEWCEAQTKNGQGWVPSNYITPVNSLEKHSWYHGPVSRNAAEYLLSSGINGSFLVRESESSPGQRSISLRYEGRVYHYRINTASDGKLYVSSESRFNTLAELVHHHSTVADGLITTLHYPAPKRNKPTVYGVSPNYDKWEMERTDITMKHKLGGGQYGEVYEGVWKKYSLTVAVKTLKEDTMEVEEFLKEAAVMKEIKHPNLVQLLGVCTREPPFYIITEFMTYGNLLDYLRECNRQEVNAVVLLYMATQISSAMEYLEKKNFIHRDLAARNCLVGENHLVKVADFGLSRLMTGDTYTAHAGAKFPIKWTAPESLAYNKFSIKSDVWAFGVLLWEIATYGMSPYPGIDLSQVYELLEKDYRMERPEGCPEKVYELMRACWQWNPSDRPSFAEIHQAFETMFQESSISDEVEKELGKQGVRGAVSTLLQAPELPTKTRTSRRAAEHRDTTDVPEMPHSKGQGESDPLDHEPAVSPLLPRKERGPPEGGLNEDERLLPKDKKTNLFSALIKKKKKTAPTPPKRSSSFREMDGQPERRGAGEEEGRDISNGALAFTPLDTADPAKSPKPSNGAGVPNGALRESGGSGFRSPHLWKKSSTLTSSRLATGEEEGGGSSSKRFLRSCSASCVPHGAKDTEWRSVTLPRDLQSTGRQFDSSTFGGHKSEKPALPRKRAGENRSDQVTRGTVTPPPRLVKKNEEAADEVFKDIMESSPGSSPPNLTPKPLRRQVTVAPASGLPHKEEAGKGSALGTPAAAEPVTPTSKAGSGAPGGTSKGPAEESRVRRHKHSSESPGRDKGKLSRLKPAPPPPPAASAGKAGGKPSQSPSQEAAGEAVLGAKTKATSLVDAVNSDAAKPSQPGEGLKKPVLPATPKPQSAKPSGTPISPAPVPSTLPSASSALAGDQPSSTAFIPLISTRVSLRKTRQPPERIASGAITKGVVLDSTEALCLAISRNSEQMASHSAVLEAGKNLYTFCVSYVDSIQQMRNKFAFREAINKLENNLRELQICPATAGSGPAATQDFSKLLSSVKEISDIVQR
Sequence of FGFR2 (P21802 22-821, species assumed): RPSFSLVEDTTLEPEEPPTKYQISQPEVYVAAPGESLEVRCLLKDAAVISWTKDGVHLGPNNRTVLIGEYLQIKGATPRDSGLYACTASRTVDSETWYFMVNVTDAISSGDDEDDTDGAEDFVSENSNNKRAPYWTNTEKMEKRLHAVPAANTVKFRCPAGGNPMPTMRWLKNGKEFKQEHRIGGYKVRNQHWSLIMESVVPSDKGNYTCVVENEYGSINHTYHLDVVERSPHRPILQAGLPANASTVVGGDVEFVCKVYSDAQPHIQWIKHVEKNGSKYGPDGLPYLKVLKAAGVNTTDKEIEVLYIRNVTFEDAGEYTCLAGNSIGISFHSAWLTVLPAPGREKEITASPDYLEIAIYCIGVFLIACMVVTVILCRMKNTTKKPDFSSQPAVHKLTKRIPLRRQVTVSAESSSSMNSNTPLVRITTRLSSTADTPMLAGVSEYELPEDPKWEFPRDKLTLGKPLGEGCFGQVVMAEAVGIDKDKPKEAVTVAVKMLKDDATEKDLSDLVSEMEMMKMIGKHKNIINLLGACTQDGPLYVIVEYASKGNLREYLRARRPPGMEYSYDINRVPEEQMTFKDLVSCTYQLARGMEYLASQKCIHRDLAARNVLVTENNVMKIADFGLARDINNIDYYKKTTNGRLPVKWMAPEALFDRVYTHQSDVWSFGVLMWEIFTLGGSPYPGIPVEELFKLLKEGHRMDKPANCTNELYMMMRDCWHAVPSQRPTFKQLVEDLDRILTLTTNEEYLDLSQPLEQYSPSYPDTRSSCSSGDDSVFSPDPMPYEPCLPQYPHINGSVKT

For `COc1cc(Nc2ncc(C)c(Nc3ccc4cn[nH]c4c3)n2)ccc1N1CCN(C)CC1` [Compound 6f, N^4-(1H-indazol-6-yl)-N^2-(3-methoxy-4-(4-methylpiperazine-1-yl)phenyl)-5-methylpyrimidine-2,4-diamine], the IC50 on ALK was 11 nM; on IKK β it was > 1000 nM; at PDGFRβ (read-out: IC50 PDGFR-β) it was 2.6 nM; on FGFR2, 61 nM; on JAK1 it was 31 nM; with MG-63 osteosarcoma cells, 841 ± 5 nM. For the same compound, the IC50 turned out to be 756 ± 1 nM with U2OS osteosarcoma cells, 720 ± 25 nM in assay [1] and 1360 ± 19 nM in assay [2]. For the same compound, the inhibition at 0.1 µM on FLT3 came to 97.8%; at PDGFRβ (100 nM, read-out: inhibitory rate on PDGFR-β) it was 97%; on ABL1, 98%. For the same compound, the “inhibitory activity on PDGFRβ (in words)” value on PDGFRβ is recorded as “significant inhibitory activities”.

The record behind these values is patent US20230312529A1, “PYRIMIDINE SMALL-MOLECULE COMPOUND AND APPLICATION THEREOF” (WENZHOU MEDICAL UNIVERSITY, priority 2021, published 2023).
